Results as given in patent publication US12077501B2, “Compounds and compositions for intracellular delivery of agents” (ModernaTX, Inc., priority 2017, dated 2024).

Key:
[1] = Lipid purity change after storage in EtOH for 96 h at 25 or 37 °C; assay type: physicochemical
Description: Nanoparticle compositions including a therapeutic and/or prophylactic agent can be optimized according to the selection of a compound according to one of formulae (I), (Ia1)-(Ia10), (Ib), (Ic), (Id), (Id1)-(Id10), (Ie), (Ie1)-(Ie6), (II), (IIa), (III), and (IIIa), the selection of additional lipids, the amount of each lipid in the lipid component, and the wt:wt ratio of the lipid component to the therapeutic and/or prophylactic agent, as described herein. Initial studies were performed to compare the delivery efficiency of nanoparticle compositions including various compounds according to one of formulae (I), (Ia1)-(Ia10), (Ib), (Ic), (Id), (Id1)-(Id10), (Ie), (Ie1)-(Ie6), (II), (IIa), (III), and (IIIa). The cationic lipid MC3 is a current standard in the art. Also determined was the stability of nanoparticles of the disclosure, i.e., the purity after storage in EtOH for 96h at 25° C. or 37° C. (Table Id).

[2] = pKa of nanoparticle compositions; assay type: physicochemical
[3] = Lipid clearance: % dose remaining in liver of CD-1 mice; assay type: in vivo; settings: intravenous, 0.5 mg/kg, CD-1 mouse, Table 8a
Text: In contrast, hEPO expression in rats induced by administration of a nanoparticle composition including a compound according to one of formulae (I), (Ia1)-(Ia6), (Ib), (II), (IIa), (III), and (IIIa) was substantially […] than that measured for MC3. […] Tables 7c and 7d show additional protein expressions and clearance data from compositions with various compounds disclosed herein as compared to with MC3. Tables 7e, 7f and 7g show hEPO expression data in CD-1 mice at a dose of 0.5 mpk.

[4] = Particle size and polydispersity index of nanoparticle compositions (Zetasizer Nano ZS); assay type: physicochemical; settings: Table 1c; nanoparticle compositions
Description: A Zetasizer Nano ZS (Malvem Instruments Ltd, Malvem, Worcestershire, UK) can be used to determine the particle size, the polydispersity index (PDI) and the zeta potential of the nanoparticle compositions in 1×PBS in determining particle size and 15 mM PBS in determining zeta potential.

[5] = Encapsulation efficiency of RNA (QUANT-IT RIBOGREEN RNA assay); assay type: physicochemical; settings: Table 1c; nanoparticle compositions
Description: For nanoparticle compositions including an RNA, a QUANT-IT™ RIBOGREEN® RNA assay (Invitrogen Corporation Carlsbad, CA) can be used to evaluate the encapsulation of an RNA by the nanoparticle composition. The samples are diluted to a concentration of approximately 5 μg/mL in a TE buffer solution (10 mM Tris-HCl, 1 mM EDTA, pH 7.5). 50 μL of the diluted samples are transferred to a polystyrene 96 well plate and either 50 μL of TE buffer or 50 μL of a 2% Triton X-100 solution is added to the wells. The plate is incubated at a temperature of 37° C. for 15 minutes. The RIBOGREEN® reagent is diluted 1:100 in TE buffer, and 100 μL of this solution is added to each well. The fluorescence intensity can be measured using a fluorescence plate reader (Wallac Victor 1420 Multilablel Counter; Perkin Elmer, Waltham, MA) at an excitation wavelength of, for example, about 480 nm and an emission wavelength of, for example, about 520 nm. The fluorescence values of the reagent blank are subtracted from that of each of the samples and the percentage of free RNA is determined by dividing the fluorescence intensity of the intact sample (without addition of Triton X-100) by the fluorescence value of the disrupted sample (caused by the addition of Triton X-100).

Row | Lipid % change purity in EtOH, 25° C., 96 h [1] | Lipid % change purity in EtOH, 37° C., 96 h [1] | pKa ([2]; Table 1c) | % Dose Remaining 24 hr [3] | PDI [4] | Size (nm) [4] | EE (%) [5] | pKa ([2]; Table 1b) | % Dose Remaining 6 hr [3] | Compound
1 | 3.54% | 4.46% | 6.90 | 2.33% | 0.23 | 84.9 nm | 98.0% | – | – | CCCCCCCCCN(CCCCCCCCC)CCN(CCCCCCCCC)CC(=O)N1CCN(C(=O)CN(CCCCCCCCC)CC(C)COC(=O)CCCCC)CC1 (stereo not drawn) [Compound 130, 3-((2-(4-(N-(2-(Dinonylamino)ethyl)-N-nonylglycyl)piperazin-1-yl)-2-oxoethyl)(nonyl)amino)-2-methylpropyl hexanoate]
2 | 0.67% | 1.49% | 6.15 | 0.29% | 0.23 | 83.8 nm | 94.8% | – | – | CCCCC/C=C\CCN(CC/C=C\CCCCC)CCN(CC/C=C\CCCCC)CC(=O)N1CCN(C(=O)CN(CCCCCCCCC)CCCCCCCC(=O)OC)CC1 [Compound 139, Methyl 8-((2-(4-(N-(2-(Di((Z)-non-3-en-1-yl)amino)ethyl)-N—((Z)-non-3-en-1-yl)glycyl)piperazin-1-yl)-2-oxoethyl)(nonyl)amino)octanoate]
3 | 1.10% | 1.80% | 7.26 | 38.63% | 0.21 | 93.7 nm | 97.4% | – | – | CCCCCCCCCCCC(=O)N1CCN(C(=O)CN(CCCCCCCCC)CCN(CCCCCCCCC)CCCCCCCCC)CC1 [Compound 143, 1-(4-(N-(2-(Dinonylamino)ethyl)-N-nonylglycyl)piperazin-1-yl)dodecan-1-one]
4 | 1.84% | 5.54% | 6.49 | 0.81% | 0.23 | 83.1 nm | 98.6% | – | – | CCCCCCCCCN(CCCCCCCCC)CCN(CCCCCCCCC)CC(=O)N1CCC(CCN(CCCCCCCCC)CC(C)COC(=O)CCCCC)CC1 (stereo not drawn) [Compound 132, 3-((2-(1-(N-(2-(Dinonylamino)ethyl)-N-nonylglycyl)piperidin-4-yl)ethyl)(nonyl)amino)-2-methylpropyl hexanoate]
5 | 8.1% | 20.8% | – | 0.12% | – | – | – | 7.58 | 0.16% | CCCCCCCCCN(CCCOC(=O)CCCCC)CCC(=O)N1CCN(C(=O)CCN(CCCCCCCCC)CCN(CCCCCCCCC)CCCCCCCCC)CC1 [Compound 86, 3-((3-(4-(3-((2-(Dinonylamino)ethyl)(nonyl)amino)propanoyl)piperazin-1-yl)-3-oxopropyl)(nonyl)amino)propyl hexanoate]
6 | 0.36% | 1.17% | 6.93 | 0.26% | 0.22 | 78.5 nm | 98.8% | – | – | CCCCCC/C=C\CC(=O)OCCCN(CCCCCCCCCCCCCC)CC(=O)N1CCN(C(=O)CN(CCCCCCCCC)CCN(CCCCCCCCC)CCCCCCCCC)CC1 [Compound 137, 3-((2-(4-(N-(2-(Dinonylamino)ethyl)-N-nonylglycyl)piperazin-1-yl)-2-oxoethyl)(tetradecyl)amino)propyl (Z)-dec-3-enoate]
7 | 5.06% | 7.63% | 7.59 | 3.25% | 0.19 | 83.3 nm | 97.2% | – | – | CCCCCCCCCN(CCCCCCCCC)CCN(CCCCCCCCC)CC(=O)N1CCN(C(=O)CCCC(=O)OCCCCCCC)CC1 [Compound 144, Heptyl 5-(4-(N-(2-(dinonylamino)ethyl)-N-nonylglycyl)piperazin-1-yl)-5-oxopentanoate]
8 | – | – | – | 30.54% | – | – | – | 6.72 | 31.32% | CCCCCCCCCN(CCCC(=O)OCCCCC)CCC1CCN(C(=O)CN(CCCCCCCCC)CCN(CCCCCCCCC)CCCCCCCCC)CC1 [Compound 83, Pentyl 4-((2-(1-(N-(2-(dinonylamino)ethyl)-N-nonylglycyl)piperidin-4-yl)ethyl)(nonyl)amino)butanoate]
9 | – | – | – | 57.20% | – | – | – | 6.75 | 56.30% | CCCCCCCCCN(CCCCCCCCC)CCN(CCCCCCCCC)CC(=O)N1CCC(CN(CCCCCCCCC)CCCCCCCCC)C1 (stereo not drawn) [Compound 70, 2-((2-(Dinonylamino)ethyl)(nonyl)amino)-1-(3-((dinonylamino)methyl)pyrrolidin-1-yl)ethan-1-one]
10 | 8.46% | 15.47% | 5.17 | 9.10% | 0.24 | 70.3 nm | 96.9% | – | – | CCCCCCCCCN(CCCCCCCCC)CCN(CCCCCCCCC)CCOC(=O)C1CCN(C(=O)CN(CCCCCCCCC)CCCCCCCCC)CC1 [Compound 129, 2-((2-(Dinonylamino)ethyl)(nonyl)amino)ethyl 1-(dinonylglycyl)piperidine-4-carboxylate]
11 | 1.60% | 11.81% | 6.85 | 33.71% | 0.21 | 82.1 nm | 96.7% | – | – | CCCCCCCCCN(CCCCCCCCC)CCN(CCCCCCCCC)CC(=O)N1CCN(C(=O)CN(CCCCCCCCC)CCCC(=O)SCCCCC)CC1 [Compound 134, S-Pentyl 4-((2-(4-(N-(2-(dinonylamino)ethyl)-N-nonylglycyl)piperazin-1-yl)-2-oxoethyl)(nonyl)amino)butanethioate]
12 | – | – | – | 52.03% | – | – | – | 7.01 | 59.21% | CCCCCCCCCN(CCCCCCCCC)CCC1CCN(C(=O)CN(CCCCCCCCC)CCN(CCCCCCCCC)CCCCCCCCC)C1 (stereo not drawn) [Compound 69, 2-((2-(Dinonylamino)ethyl)(nonyl)amino)-1-(3-(2-(dinonylamino)ethyl)pyrrolidin-1-yl)ethan-1-one]
13 | – | – | – | 20.86% | – | – | – | 7.01 | 21.23% | CCCCCCCCCN(CCCC(=O)OCCCCC)CCCC1CCN(C(=O)CCN(CCCCCCCCC)CCN(CCCCCCCCC)CCCCCCCCC)CC1 [Compound 84, Pentyl 4-((3-(1-(3-((2-(dinonylamino)ethyl)(nonyl)amino)propanoyl)piperidin-4-yl)propyl)(nonyl)amino)butanoate]
14 | 2.26% | 4.09% | 6.90 | 0.16% | 0.22 | 81.1 nm | 98.6% | – | – | CCCCCCCCCCCCN(CCCOC(=O)CCCCCCC)CC(=O)N1CCN(C(=O)CN(CCCCCCCCC)CCN(CCCCCCCCC)CCCCCCCCC)CC1 [Compound 135, 3-((2-(4-(N-(2-(Dinonylamino)ethyl)-N-nonylglycyl)piperazin-1-yl)-2-oxoethyl)(dodecyl)amino)propyl Octanoate]
15 | −0.71% | 0.77% | 6.13 | 56.18% | 0.23 | 72.1 nm | 97.7% | – | – | CCCCC/C=C\CCN(CC/C=C\CCCCC)CCN(CC/C=C\CCCCC)CC(=O)N1CCN(C(=O)CN(CCCCCCCCC)CCCCCCCCC)CC1 [Compound 136, 2-((2-(Di((Z)-non-3-en-1-yl)amino)ethyl)((Z)-non-3-en-1-yl)amino)-1-(4-(dinonylglycyl)piperazin-1-yl)ethan-1-one]
